How the values were obtained:
[1] = tested on: human and murine melanomas; experiment: Scintillation imaging in human and murine melanoma models (B16, B16 pulmonary metastases, Beu, Dau, FOSS(ORIS)); format: in vivo, human; mouse
Excerpt: The mice bearing grafted tumors are anesthetized by the i.p. injection of sodium pentobarbital 1/5 and immobilized under a scintillation camera (Gammatome II, CGR) equipped with a pinhole 3-360 collimator, sensitivity 3.2 10^-4. […] C57 BL6 bearing pulmonary metastases of B16 melanoma.

[2] = tested on: SW 948 (adenocarcinoma of the colon); experiment: Scintillation imaging (specificity), nu/nu SSCUP nude mice; format: in vivo; conditions: after injection of A
Excerpt: (§1) The mice bearing grafted tumors are anesthetized by the i.p. injection of sodium pentobarbital 1/5 and immobilized under a scintillation camera (Gammatome II, CGR) equipped with a pinhole 3-360 collimator, sensitivity 3.2 10^-4.

[3] = tested on: A 431 (tumor of the vulva); experiment: as above; format: in vivo; conditions: after injection of A
Excerpt: as §1

[4] = tested on: male nu/nu SSCUP nude mice bearing heterotransplants (Beu melanoma); experiment: LD50 determination, i.v. (Karber and Behrens); conditions: mouse, in vivo, iv
Excerpt: (§2) The determination of the LD50 is made in the mouse after i.v. injection of the molecules according to the methodology described by Karber and Behrens.
(§3) male nu/nu SSCUP nude mice bearing heterotransplants of human melanomas.

[5] = LD50 determination, i.v. (Karber and Behrens); conditions: mouse, in vivo, iv
Excerpt: as §2, §3

[6] = tested on: EMT6 tumor (spontaneous mammary carcinoma of mice); experiment: Scintillation imaging (specificity), BALB mice; format: in vivo, mouse
Excerpt: as §1

[7] = tested on: Dau amelanic human melanoma; experiment: Tissue distribution in Swiss nu/nu SSCUP mice bearing Dau; format: in vivo
Procedure: The study of the tissue distribution of the ^125 I labelled compounds was performed in mice bearing grafted melanomas (cf. autoradiograms above). […] The animals are sacrificed at different time intervals of 1 to 24 hours after the injection. The blood is collected and the principal organs are excised. Aliquots are weighed and the radioactivity of the samples is measured in a […] 1191 counter (analytic tracer). The counting yield for iodine 125 is 60%. The results are expressed: as a percentage of the injected dose bound per g of tissue (% ID/g); in the form of the ratios [formula] This ratio reflects more precisely the selectivity of a molecule for an organ (tables 2, 4, 6, 8, 10 and 12).

[8] = tested on: pulmonary colonies of B16 melanoma; experiment: Autoradiograms, pulmonary metastasing colonies after i.v. B16 cells; format: in vivo, mouse; conditions: 1 to 7 hours after injection
Procedure: The autoradiograms are carried out in mice bearing grafted melanomas:
The animals bearing grafted tumors receive the labelled compounds in the form of the hydrochloride in saline solution (3.7 to 5×10^5 Bq/animal) in a caudal vein. At different time intervals after the administration of the compounds (from 15 minutes to 24 hours) the mice are anesthetized with ether and plunged into liquid nitrogen.
30 μm sections, parallel to a sagittal plane, are prepared in a freezing microtome (TS 260, SLEE) according to the protocol described by Ullberg. The sections, dehydrated in the cold, are applied to sensitive films, Ultrofim ^3 H (LKB, 2208-190) or Hyperfilm ^3 H (Amersham, RPN 535).
After the i.v. injection of B16 melanoma cells the appearance of predominantly pulmonary metastasing colonies is noticed.

## CCN(CC)CCNC(=O)c1ccc(I)cc1 [Derivative A, N-(2-diethylaminoethyl) 4-iodo benzamide]
[1]; ^125 I and ^123 I-A, i.v.
  tumoral definition in scintillation images: good tumoral definition
[1]; considerable intraabdominal and pulmonary radioactivity
  early images: more difficult to interpret
[1]; from 4 h
  quality of tumor images: good quality
[1]; in vivo
  intratumoral necrosis zones: not visualized
  size of human melanoma imaged: less than 5 mm
[2]
  tumor image: not obtained any image
[3]
  tumor image: not obtained any image
[4]
  LD 0: 60 mg/kg
  LD 100: 150 mg/kg
[5]
  LD50: 90 mg/kg
[6]; ^123 I label
  tumor image: absence of images
[6]; after injection of A
  tumor image: not obtained any image

## CCNCCNC(=O)c1ccc(I)cc1 [Derivative B, N-(2-ethylaminoethyl) 4-iodo benzamide]
[7]; 4 to 6 h, Dau
  intratumoral concentrations compared with A: slightly higher
[7]; 1 h
  brain/blood ratio: 1,44 ± 0,069
  eye/blood ratio: 0,57 ± 0,011
  intestine/blood ratio: 3,44 ± 0,231
  kidney/blood ratio: 9,10 ± 0,286
  liver/blood ratio: 5,56 ± 0,225
  lungs/blood ratio: 6 ± 0,353
  muscle/blood ratio: 1,17 ± 0,040
  pancreas/blood ratio: 3,20 ± 0,099
  plasma/blood ratio: 0,80 ± 0,017
  spleen/blood ratio: 2,84 ± 0,091
  stomach/blood ratio: 2,66 ± 0,101
  submaxillary glands/blood ratio: 4,82 ± 0,285
  tumor/blood ratio: 1,33 ± 0,015
[7]; 2 h
  brain/blood ratio: 1,43 ± 0,261
  eye/blood ratio: 0,55 ± 0,052
  intestine/blood ratio: 2,87 ± 0,34
  kidney/blood ratio: 7,00 ± 1,03
  liver/blood ratio: 3,62 ± 0,68
  lungs/blood ratio: 6,33 ± 1,166
  muscle/blood ratio: 0,98 ± 0,182
  pancreas/blood ratio: 2,42 ± 0,36
  plasma/blood ratio: 0,89 ± 0,068
  spleen/blood ratio: 2,31 ± 0,36
  stomach/blood ratio: 3,40 ± 0,694
  submaxillary glands/blood ratio: 4,48 ± 0,220
  tumor/blood ratio: 1,39 ± 0,103
[7]; 4 h
  brain/blood ratio: 2,21 ± 0,304
  eye/blood ratio: 0,71 ± 0,056
  intestine/blood ratio: 4,08 ± 0,599
  kidney/blood ratio: 8,03 ± 0,813
  liver/blood ratio: 5,21 ± 0,519
  lungs/blood ratio: 8,77 ± 0,838
  muscle/blood ratio: 1,24 ± 0,153
  pancreas/blood ratio: 2,70 ± 0,300
  plasma/blood ratio: 0,94 ± 0,058
  spleen/blood ratio: 2,07 ± 0,256
  stomach/blood ratio: 4,34 ± 0,924
  submaxillary glands/blood ratio: 5,44 ± 0,297
  tumor/blood ratio: 2,68 ± 0,757
[7]; 6 h
  brain/blood ratio: 0,44 ± 0,060
  eye/blood ratio: 0,36 ± 0,023
  intestine/blood ratio: 1,97 ± 0,112
  kidney/blood ratio: 2,01 ± 0,252
  liver/blood ratio: 1,43 ± 0,439
  lungs/blood ratio: 1,82 ± 0,187
  muscle/blood ratio: 0,24 ± 0,056
  pancreas/blood ratio: 0,76 ± 0,050
  plasma/blood ratio: 1,16 ± 0,016
  spleen/blood ratio: 0,62 ± 0,045
  stomach/blood ratio: 3,78 ± 0,400
  submaxillary glands/blood ratio: 5,16 ± 0,853
  tumor/blood ratio: 0,65 ± 0,025
[7]; 8 h
  brain/blood ratio: 1,31 ± 0,180
  eye/blood ratio: 0,60 ± 0,040
  intestine/blood ratio: 3,30 ± 0,269
  kidney/blood ratio: 3,72 ± 0,573
  liver/blood ratio: 6,03 ± 0,678
  lungs/blood ratio: 3,69 ± 0,585
  muscle/blood ratio: 0,74 ± 0,216
  pancreas/blood ratio: 1,22 ± 0,151
  plasma/blood ratio: 0,19 ± 0,020
  spleen/blood ratio: 1,28 ± 0,158
  stomach/blood ratio: 5,35 ± 0,355
  submaxillary glands/blood ratio: 3,65 ± 0,266
  tumor/blood ratio: 1,17 ± 0,314
[7]; 12 h
  brain/blood ratio: 0,74 ± 0,072
  eye/blood ratio: 0,88 ± 0,081
  intestine/blood ratio: 3,20 ± 0,502
  kidney/blood ratio: 5,46 ± 0,217
  liver/blood ratio: 13,34 ± 0,462
  lungs/blood ratio: 3,04 ± 0,401
  muscle/blood ratio: 0,45 ± 0,111
  pancreas/blood ratio: 5 ± 0,310
  plasma/blood ratio: 0,16 ± 0,037
  spleen/blood ratio: 3,68 ± 0,493
  stomach/blood ratio: 7,03 ± 0,728
  submaxillary glands/blood ratio: 2,52 ± 0,236
  tumor/blood ratio: 1,11 ± 0,059
[7]; 24 h
  brain/blood ratio: 0,22 ± 0,029
  eye/blood ratio: 0,94 ± 0,213
  intestine/blood ratio: 1,16 ± 0,141
  kidney/blood ratio: 4,64 ± 0,328
  liver/blood ratio: 21,88 ± 1,493
  lungs/blood ratio: 1,72 ± 0,182
  muscle/blood ratio: 0,27 ± 0,043
  pancreas/blood ratio: 1,40 ± 0,120
  plasma/blood ratio: 1,07 ± 0,154
  spleen/blood ratio: 11,17 ± 1,75
  stomach/blood ratio: 2,28 ± 0,165
  submaxillary glands/blood ratio: 1,81 ± 0,169
  tumor/blood ratio: 0,79 ± 0,092
[7]; Dau
  tumor/blood ratios compared with A: not significantly different
[8]
  visualization of pulmonary colonies: readily visualized

— patent publication US5190741A, “Agents for diagnosing and treating melanomas, aromatic halogenated derivatives usable as such agents and their preparation” (Institut National de la Sante et de la Recherche Medicale …, priority 1989, dated 1993)
